This is an account of results in ChEMBL document CHEMBL2434929, “Thermoresponsive dendrimers based on oligoethylene glycols: design, synthesis and cytotoxic activity against MCF-7 breast cancer cells” (Eur J Med Chem, 2013).

Assay [1] deals with MCF7. The experiment in a line: Cytotoxicity against human MCF7 cells assessed as viable cells at 0.1 to 1000 ug/ml after 72 hrs by SRB-U assay. It counts as functional. On the technique in general: In SRB staining, fixed cells bind dye roughly in proportion to their protein.
The subject of assay [2] is MCF7. In words: Cytotoxicity against human MCF7 cells after 72 hrs by SRB-U assay. It counts as functional, cell-based. The conditions noted are these: MCF7, 72 h.

In brackets after ≈: the same amount, converted by molar mass.

The term IC50 denotes the concentration that gives 50% inhibition. Read a low IC50 as inhibition by little substance. Take `CCOCCOCCOCCOc1cc(COCCOCCOCCOc2c(Br)c(Br)c(OCCOCCOCCOCc3cc(OCCOCCOCCOCC)c(OCCOCCOCCOCC)c(OCCOCCOCCOCC)c3)c(Br)c2Br)cc(OCCOCCOCCOCC)c1OCCOCCOCCOCC`: the Activity in the assay with MCF7 [1] came to 5.1%. The IC50 in the assay with MCF7 [2] was 25.4 µg/mL (≈ 13.2 µM).
With `CCOCCOCCOCCOc1cc(COc2c(Br)c(Br)c(OCc3cc(OCCOCCOCCOCC)c(OCCOCCOCCOCC)c(OCCOCCOCCOCC)c3)c(Br)c2Br)cc(OCCOCCOCCOCC)c1OCCOCCOCCOCC`, in the assay with MCF7 [1], the Activity is on record as 1.97%. In the assay on MCF7 [2], this molecule gave an IC50 of 1.07 µg/mL (≈ 0.643 µM).
With `CCOCCOCCOCCOc1c(Br)c(Br)c(OCCOCCOCCOCC)c(Br)c1Br`, the Activity in the assay on MCF7 [1] was 11.22%. The molecule further displayed an IC50 with MCF7 [2] of 13.8 µg/mL (≈ 18.5 µM).
